Measurements as given in PMC4741798, “Imaging of carbonic anhydrase IX with an ^111In-labeled dual-motif inhibitor” (Oncotarget, 2015).

Experiments:
CAIX [1] = target: CAIX; parameters: method as in PMID 25698334; settings: reported value; cited from earlier work
CAIX [2] = target: T1, CAIX (Homo sapiens, UniProt Q16790); experiment: Competitive fluorescence polarization assay with FITC-labeled 8; type: binding; settings: 100 nM CAIX, 80 nM 8, 30 min room temperature, triplicate; read-out: IC50 (inhibition of fluorescence polarization of FITC labeled 8)
T1 construct: purchased R&D Systems
Excerpt: We synthesized fluorescein isothiocyanate (FITC)-labeled 8 as a standard to measure CAIX binding affinities of the corresponding radiotracers. […] CAIX-selective binding was confirmed by fluorescence microscopic analyses of SK-RC-53 and BxPC3 cells labeled with 8 (Fig. 2). […] In order to test the relative binding of XYIMSR-01 and [^113/115In]XYIMSR-01 to CAIX we modified a competitive fluorescence polarization assay for use with 8. For the competitive binding assay, after optimization for background fluorescence, we chose concentrations of 80 nM and 100 nM for 8 and CAIX, respectively. […] Increasing concentrations of 1, XYIMSR-01 and [^113/115In]XYIMSR-01 were incubated with CAIX for 30 min at room temperature. After 8 was added, fluorescence polarization signal was recorded. […] We took advantage of fluorescence polarization using 8 to measure relative binding affinities for other isoforms of the carbonic anhydrases. We chose to test one cytosolic (CAII) and an additional membrane-localized isoform (CAXII).
Fluorescence polarization (FP) experiments were performed in 21 μL of the assay buffer (12.5 mM Tris-HCl, pH 7.5, 75 mM NaCl) in black flat bottom 384-well microplates (Corning, Inc., New York, NY). The FP reaction employed 100 nM of purified CAIX (R&D systems, Minneapolis, MN) and 80 nM FITC-labeled 8 [27] within the assay buffer. The FP values were measured as mP units using the Victor3 multi-label plate reader equipped with excitation (485 nm) and emission (535 nm) filters (Perkin Elmer, Waltham, MA). 100 nM CAIX was incubated with serially diluted (from 1 μM to 61 fM) concentrations of the three targeting molecules, 1, XYIMSR-01, and [^113/115In]XYIMSR-01 for 30 min at room temperature in 384-well plates. 80 nM 8 was added to each well and the reaction was incubated for 30 min at room temperature followed by FP measurement. Experiments were carried out in triplicate and the concentration resulting in 50% response (IC50) was calculated in GraphPad Prism 5 (GraphPad Software, La Jolla, CA) using the sigmoidal dose-response regression function.

Structure (SMILES) | Kd (CAIX [1]) [nM] | IC50 (CAIX [2]) [nM]
CC(CCC(=O)N[C@@H](CC(=O)N[C@@H](CC(=O)N[C@@H](CCCCn1cc(CCCC(=O)Nc2nnc(S(N)(=O)=O)s2)nn1)C(=O)NCCOCCOCCN)C(=O)O)C(=O)O)(c1ccc(O)cc1)c1ccc(O)cc1 [Compound 1, N^4-((S)-1-((2-(2-(2-aminoethoxy)ethoxy)ethyl)amino)-1-oxo-6-(4-(4-oxo-4-((5-sulfamoyl-1,3,4-thiadiazol-2-yl)amino)butyl)-1H-1,2,3-triazol-1-yl)hexan-2-yl)-N^2-((S)-3-(4,4-bis(4-hydroxyphenyl)pentanamido)-3-carboxypropanoyl)-L-asparagine, reference compound] | 2.6 | 75.9
CC(CCC(=O)N[C@@H](CC(=O)N[C@@H](CC(=O)N[C@@H](CCCCn1cc(CCCC(=O)Nc2nnc(S(N)(=O)=O)s2)nn1)C(=O)NCCOCCOCCNC(=O)CN1CCN(CC(=O)O)CCN(CC(=O)O)CCN(CC(=O)O)CC1)C(=O)O)C(=O)O)(c1ccc(O)cc1)c1ccc(O)cc1 [XYIMSR-01, 2,2′,2′'-(10-((14S,18S,22S)-18,22-dicarboxy-27,27-bis(4-hydroxyphenyl)-2,13,16,20,24-pentaoxo-14-(4-(4-(4-oxo-4-((5-sulfamoyl-1,3,4-thiadiazol-2-yl)amino)butyl)-1H-1,2,3-triazol-1-yl)butyl)-6,9-dioxa-3,12,15,19,23-pentaazaoctacosyl)-1,4,7,10-tetraazacyclododecane-1,4,7-triyl)triacetic acid] |  | 67
CC(CCC(=O)N[C@@H](CC(=O)N[C@@H](CC(=O)N[C@@H](CCCCn1cc(CCCC(=O)Nc2nnc(S(N)(=O)=O)s2)nn1)C(=O)NCCOCCOCCNC(=O)CN1CCN(CC(=O)[O-])CCN(CC(=O)[O-])CCN(CC(=O)[O-])CC1)C(=O)O)C(=O)O)(c1ccc(O)cc1)c1ccc(O)cc1.[In+3] [[^113/115In]XYIMSR-01, ^113/115Indium(III) 2,2′,2′'-(10-((14S,18S,22S)-18,22-dicarboxy-27,27-bis(4-hydroxyphenyl)-2,13,16,20,24-pentaoxo-14-(4-(4-(4-oxo-4-((5-sulfamoyl-1,3,4-thiadiazol-2-yl)amino)butyl)-1H-1,2,3-triazol-1-yl)butyl)-6,9-dioxa-3,12,15,19,23-pentaazaoctacosyl)-1,4,7,10-tetraazacyclododecane-1,4,7-triyl)triacetate] |  | 108
